Measurements published in ChEMBL document CHEMBL4422630, “Identification of substituted 5-membered heterocyclic compounds as potential anti-leukemic agents” (Eur J Med Chem, 2019).
One block for each compound: values may come before it. The source made the active and inactive calls. The calls are words filed in the database; no cut-off is given here.

Tests used:
KOPN-8 [1] = test: Cell cycle arrest in human KOPN8 cells assessed as increase in accumulation of cells at S phase at 5 uM after 24 hrs by propidium iodide staining-based flow cytometric analysis; format: functional
SUP-B15 [2] = test: Cell cycle arrest in human SUP-B15 cells assessed as accumulation of cells at G1/G0 phase at 5 uM after 24 hrs by propidium iodide staining-based flow cytometric analysis; format: functional
[3] = Half life in mouse microsomes; format: ADME, Microsome
[4] = Intrinsic clearance in mouse microsomes; format: ADME, Microsome
[5] = Protein binding in mouse plasma; format: ADME, cell-free; details: read-out: PPB (converted)
[6] = Apparent permeability of compound form basolateral to apical side in human Caco2 cells; format: ADME, cell-based; details: Caco-2
MV4-11 = test: Antiproliferative activity against human MV411 assessed as reduction in cell viability after 72 hrs by CellTiter-Glo assay; format: functional, cell-based; details: MV4-11, 72 h
K562 = test: Antiproliferative activity against human K562 assessed as reduction in cell viability after 72 hrs by CellTiter-Glo assay; format: functional, cell-based; details: K562, 72 h
KOPN-8 [7] = test: Induction of apoptosis in human KOPN8 cells assessed as late apoptotic cells level after 24 hrs by Annexin V and propidium iodide staining based flow cytometry (reference value: 2%); format: functional
BJ = test: Antiproliferative activity against human BJ assessed as cell viability after 72 hrs by CellTiter-Glo assay; format: functional, cell-based
[8] = Intrinsic clearance in human microsomes; format: ADME, Microsome
MDA-MB-231 [9] = test: Cytotoxicity against human MDA-MB-231 cells up to 30 uM after 24 hrs by propidium iodide staining-based fluorescence assay; format: functional, cell-based
SUP-B15 [10] = test: Induction of apoptosis in human SUP-B15 cells assessed as decrease in cell viability at 5 uM after 24 hrs by Annexin V/propidium iodide staining-based flow cytometric analysis; format: functional
SUP-B15 [11] = test: Cytotoxicity in human SUP-B15 cells assessed as decrease in cell viability after 24 hrs by bis-AAF-RF110 dye based assay; format: functional
UoC-B1 = test: Antiproliferative activity against human UOCB1 assessed as reduction in cell viability after 72 hrs by CellTiter-Glo assay; format: functional, cell-based; details: UoC-B1, 72 h
[12] = Half life in human microsomes; format: ADME, Microsome
SUP-B15 [13] = test: Induction of apoptosis in human SUP-B15 cells assessed as late apoptotic cells level after 24 hrs by Annexin V and propidium iodide staining based flow cytometry (reference value: 83%); format: functional
B-ALL [14] = test: Antiproliferative activity against mouse B-ALL BCR-ABL double knockout cells assessed as reduction in cell viability after 72 hrs by CellTiter-Glo assay; format: functional, cell-based
[15] = Protein binding in human plasma; format: ADME, cell-free; details: read-out: PPB (converted)
MDA-MB-231 [16] = test: Cytotoxicity against human MDA-MB-231 cells at 30 uM after 24 hrs by propidium iodide staining-based fluorescence assay; format: functional, cell-based
KOPN-8 [17] = test: Cell cycle arrest in human KOPN8 cells assessed as accumulation of cells at G1/G0 phase at 5 uM after 24 hrs by propidium iodide staining-based flow cytometric analysis relative to control; format: functional
SUP-B15 [18] = test: Antiproliferative activity against human SUP-B15 assessed as reduction in cell viability after 72 hrs by CellTiter-Glo assay; format: functional, cell-based; details: SUP-B15, 72 h
B-ALL [19] = test: Antiproliferative activity against mouse B-ALL cells expressing wild type BCR-ABL assessed as reduction in cell viability after 72 hrs by CellTiter-Glo assay; format: functional, cell-based
SUM149PT = test: Cytotoxicity against human SUM149 cells at 100 uM after 24 hrs by propidium iodide staining-based fluorescence assay relative to control; format: functional
SUP-B15 [20] = test: Cell cycle arrest in human SUP-B15 cells assessed as accumulation of cells at G2/M phase at 5 uM after 24 hrs by propidium iodide staining-based flow cytometric analysis; format: functional
[21] = Permeability of compound at pH 7.4 by PAMPA; format: ADME; details: read-out: Peff
KOPN-8 [22] = test: Cell cycle arrest in human KOPN8 cells assessed as accumulation of cells at G2/M phase at 5 uM after 24 hrs by propidium iodide staining-based flow cytometric analysis relative to control; format: functional
[23] = Apparent permeability of compound form apical to basolateral side in human Caco2 cells; format: ADME, cell-based; details: Caco-2
SUP-B15 [24] = test: Induction of apoptosis in human SUP-B15 cells assessed as increase in caspase 3/7 activity after 24 hrs by caspase-Glo 3/7 reagent based luminescence assay; format: functional, cell-based
[25] = Half life in human plasma; format: ADME, cell-free
NALM-6 = test: Antiproliferative activity against human NALM6 assessed as reduction in cell viability after 72 hrs by CellTiter-Glo assay; format: functional, cell-based; details: NALM-6, 72 h
[26] = Efflux ratio of apparent permeability across basolateral to apical side over apical to basolateral side in human Caco2 cells; format: ADME, cell-based; details: Caco-2
SUP-B15 [27] = test: Induction of apoptosis in human SUP-B15 cells assessed as late apoptotic cells level after 24 hrs by Annexin V and propidium iodide staining based flow cytometry (reference value: 13.5%); format: functional
KOPN-8 [28] = test: Induction of apoptosis in human KOPN8 cells assessed as decrease in cell viability at 5 uM after 24 hrs by Annexin V/propidium iodide staining-based flow cytometric analysis; format: functional
KOPN-8 [29] = test: Induction of apoptosis in human KOPN8 cells assessed as late apoptotic cells level after 24 hrs by Annexin V and propidium iodide staining based flow cytometry (reference value: 96.4%); format: functional
KOPN-8 [30] = test: Antiproliferative activity against human KOPN8 assessed as reduction in cell viability after 72 hrs by CellTiter-Glo assay; format: functional, cell-based; details: KOPN-8, 72 h
[31] = Permeability of compound at pH 7.4 assessed as drug retention by PAMPA; format: ADME
[32] = Half life in mouse plasma; format: ADME, cell-free
SUP-B15 [33] = test: Induction of apoptosis in human SUP-B15 cells assessed as decrease in cell viability at […] after 24 hrs by ApoTox-Glo triplex assay; format: functional, cell-based
[34] = Therapeutic index, ratio of EC50 for human BJ cells to EC50 for mouse B-ALL cells expressing wild type BCR-ABL; format: toxicity; details: human BJ cells versus mouse B-ALL cells expressing wild type BCR-ABL; read-out: Ratio EC50
B-ALL [35] = test: Induction of apoptosis in mouse B-ALL BCR-ABL double knockout cells assessed as increase in caspase 3/7 activity after 24 hrs by caspase-Glo 3/7 reagent based luminescence assay; format: functional, cell-based
[36] = Half life in simulated gastric fluid; format: ADME
SUP-B15 [37] = test: Induction of apoptosis in human SUP-B15 cells assessed as late apoptotic cells level at 2 uM after 24 hrs by Annexin V and propidium iodide staining based flow cytometry (reference value: 13.5%); format: functional
KOPN-8 [38] = test: Induction of apoptosis in human KOPN8 cells assessed as late apoptotic cells level at 2 uM after 24 hrs by Annexin V and propidium iodide staining based flow cytometry (reference value: 96.4%); format: functional
SUP-B15 [39] = test: Induction of apoptosis in human SUP-B15 cells assessed as late apoptotic cells level at 2 uM after 24 hrs by Annexin V and propidium iodide staining based flow cytometry (reference value: 83%); format: functional
KOPN-8 [40] = test: Induction of apoptosis in human KOPN8 cells assessed as late apoptotic cells level at 2 uM after 24 hrs by Annexin V and propidium iodide staining based flow cytometry (reference value: 2%); format: functional

- half-life [3]: 1.2 h
- CLint scaled [4]: 47.5 mL/min/kg
- fraction unbound [5]: 0.023
- Papp B→A [6]: 37.2 ×10⁻⁶ cm/s
- EC50 (MV4-11): 3800 nM
- EC50 (K562): 4600 nM
- CLint scaled [8]: 14.5 mL/min/kg
- half-life [12]: 1.44 h
- fraction unbound [15]: 0.042
- Papp [21]: 617 ×10⁻⁶ cm/s
- Papp A→B [23]: 10.6 ×10⁻⁶ cm/s
- half-life [25]: > 48 h
- efflux ratio [26]: 3.5
- permeability [31]: 24.8%
- half-life [32]: > 48 h
- half-life [36]: > 48 h
Compound: Cc1ccc(S(=O)(=O)Cc2nc(-c3ccc(C(=O)NCc4cccnc4)cc3)oc2C)cc1
- Activity (KOPN-8 [1]): Active
- Activity (SUP-B15 [2]): inactive
- Activity (KOPN-8 [7]): 2.9%
- EC50 (BJ): 2490 nM
- Activity (MDA-MB-231 [9]): inactive
- Activity (SUP-B15 [10]): Active
- Activity (SUP-B15 [11]): Active
- EC50 (UoC-B1): > 55000 nM
- Activity (SUP-B15 [13]): 69.9%
- EC50 (B-ALL [14]): 61 nM
- Activity (MDA-MB-231 [16]): Active
- Activity (KOPN-8 [17]): 10%
- EC50 (SUP-B15 [18]): 1100 nM
- EC50 (B-ALL [19]): 72 nM
- Activity (SUM149PT): 50%
- Activity (SUP-B15 [20]): inactive
- Activity (KOPN-8 [22]): 12%
- Activity (SUP-B15 [24]): Active
- EC50 (NALM-6): 26 nM
- Activity (SUP-B15 [27]): 7.6%
- Activity (KOPN-8 [28]): Active
- Activity (KOPN-8 [29]): 95.8%
- EC50 (KOPN-8 [30]): 1230 nM
- Activity (SUP-B15 [33]): Active
- selectivity ratio [34]: 34
- Activity (B-ALL [35]): inactive

Compound: CN[C@@H]1C[C@H]2O[C@@](C)([C@@H]1OC)n1c3ccccc3c3c4c(c5c6ccccc6n2c5c31)C(=O)NC4 [STAUROSPORINE]
- Activity (SUP-B15 [37]): 52.3%
- Activity (KOPN-8 [38]): 53.2%
- Activity (SUP-B15 [39]): 10%
- Activity (KOPN-8 [40]): 45.2%
